Results taken from patent US6166072A, “Amino acid derivatives” (Allelix Neuroscience, Inc., priority 1999, dated 2000).

Tests used:
GlyT-1C = biological target: T1, GlyT-1C (Homo sapiens, UniProt P48067); experiment: Glycine uptake by cells transiently transfected with GlyT-1C; type: cell-based; conditions: GlyT-1 and GlyT-2 transfected cells
T1 construct: [3H]glycine uptake
T1 sequence (P48067 1-706): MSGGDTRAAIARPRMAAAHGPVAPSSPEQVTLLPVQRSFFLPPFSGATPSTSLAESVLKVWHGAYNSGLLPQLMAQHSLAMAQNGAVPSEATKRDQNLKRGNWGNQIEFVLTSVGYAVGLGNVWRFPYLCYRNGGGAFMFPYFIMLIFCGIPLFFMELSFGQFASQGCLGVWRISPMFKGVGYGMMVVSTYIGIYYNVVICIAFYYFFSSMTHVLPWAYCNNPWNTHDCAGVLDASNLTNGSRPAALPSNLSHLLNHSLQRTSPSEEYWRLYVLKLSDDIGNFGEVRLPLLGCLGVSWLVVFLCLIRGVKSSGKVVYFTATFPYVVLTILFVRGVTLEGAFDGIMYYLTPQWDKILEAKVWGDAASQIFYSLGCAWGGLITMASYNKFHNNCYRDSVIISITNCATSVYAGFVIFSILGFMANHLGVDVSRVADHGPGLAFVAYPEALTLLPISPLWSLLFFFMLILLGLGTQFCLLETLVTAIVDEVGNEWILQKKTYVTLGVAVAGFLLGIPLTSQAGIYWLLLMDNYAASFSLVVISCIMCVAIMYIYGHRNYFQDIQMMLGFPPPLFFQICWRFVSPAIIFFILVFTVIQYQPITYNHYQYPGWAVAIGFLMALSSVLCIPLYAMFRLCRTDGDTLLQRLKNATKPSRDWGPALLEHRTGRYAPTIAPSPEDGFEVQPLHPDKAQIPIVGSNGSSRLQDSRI
Experimental: (§1) This example illustrates a method for the measurement of glycine uptake by transfected cultured cells.
(§2) Cells transiently transfected with GlyT-1C (see Kim, et al., Molecular Pharmacology, 45, 1994:608-617) and human GlyT-2 (the homolog of the rat GlyT-2 described by Liu et al., J. Biological Chemistry, 268, 1993.22802-22808) were washed three times with HEPES buffered saline (HBS). The cells were then incubated 10 minutes at 37° C., after which a solution containing 50 nM [^3 H]glycine (17.5 Ci/mmol) and either (a) no potential competitor, (b) […] nonradioactive glycine or (c) a concentration of a candidate drug. A range of concentrations of the candidate drug was used to generate data for calculating the concentration resulting in 50% of the effect (e.g., the IC50 's which are the concentration of drug inhibiting glycine uptake by 50%). The cells were then incubated another 10 minutes at 37° C., after which the cells were aspirated and washed three times with ice-cold HBS. The cells were harvested, scintillant was added to the cells, the cells were shaken for 30 minutes, and the radioactivity in the cells was counted using a scintillation counter. Data were compared between the same cells contacted and not contacted by the candidate agent, and between cells having GlyT-1 activity versus cells having GlyT-2 activity, depending on the assay being conducted.

human GlyT-2 = biological target: T2, human GlyT-2 (Homo sapiens, UniProt Q9Y345); experiment: Glycine uptake by cells transiently transfected with human GlyT-2; type: cell-based; conditions: GlyT-2 versus GlyT-1 transfected cells
T2 construct: [3H]glycine uptake
T2 sequence (Q9Y345 1-797): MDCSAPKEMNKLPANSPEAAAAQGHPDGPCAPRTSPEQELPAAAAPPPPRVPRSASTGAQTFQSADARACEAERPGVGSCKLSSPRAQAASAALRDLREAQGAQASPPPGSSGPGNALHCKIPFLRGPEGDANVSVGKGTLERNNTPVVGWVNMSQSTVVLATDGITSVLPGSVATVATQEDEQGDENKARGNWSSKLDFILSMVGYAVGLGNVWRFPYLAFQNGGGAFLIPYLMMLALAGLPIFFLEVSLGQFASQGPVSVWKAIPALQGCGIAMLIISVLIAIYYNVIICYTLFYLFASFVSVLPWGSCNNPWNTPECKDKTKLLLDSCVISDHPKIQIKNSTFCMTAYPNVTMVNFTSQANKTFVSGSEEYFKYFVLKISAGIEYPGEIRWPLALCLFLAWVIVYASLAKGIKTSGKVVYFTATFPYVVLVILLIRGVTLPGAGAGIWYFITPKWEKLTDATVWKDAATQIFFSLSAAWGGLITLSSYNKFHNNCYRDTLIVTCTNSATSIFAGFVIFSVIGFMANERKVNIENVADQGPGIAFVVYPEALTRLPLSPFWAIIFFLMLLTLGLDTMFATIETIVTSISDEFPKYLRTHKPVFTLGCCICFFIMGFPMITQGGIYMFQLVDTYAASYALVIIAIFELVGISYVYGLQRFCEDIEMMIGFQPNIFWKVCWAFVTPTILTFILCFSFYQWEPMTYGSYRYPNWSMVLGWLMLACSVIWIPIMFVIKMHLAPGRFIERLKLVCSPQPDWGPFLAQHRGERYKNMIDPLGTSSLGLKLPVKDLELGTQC
Experimental: as §1, §2

| SMILES | mixed GlyT-1/GlyT-2 activity (GlyT-1C) | selectivity for inhibition of glycine transport via GlyT-2 versus GlyT-1 (human GlyT-2) |
| --- | --- | --- |
| CCCc1ccc(C(SCC(N)C(=O)O)c2ccc(F)cc2F)cc1 (racemic) [S-(2,4-Difluoro-4'-^npropyldiphenyl)methyl-D,L-cysteine] | mixed GlyT-1/GlyT-2 activity |  |
| CCc1ccc(C(SCC(N)C(=O)O)c2ccc(F)cc2F)cc1CC (racemic) [S-(3,4-Diethyl-2',4'-difluorodiphenyl)methyl-D,L-cysteine] |  | selectivity for the inhibition of glycine transport via GlyT-2 versus GlyT-1 |
| CCc1ccc(C(SC(C)(C)C(N)C(=O)O)c2ccccc2F)cc1CC (racemic) [S-(3,4-Diethyl-2'-fluorodiphenyl)methyl-D,L-dimethylcysteine] |  | selectivity for the inhibition of glycine transport via GlyT-2 versus GlyT-1 |
| CCc1ccc(C(SCC(N)C(=O)O)c2cccc(F)c2)cc1CC (racemic) [S-(3,4-Diethyl-3'-fluorodiphenyl)methyl-D,L-cysteine] | mixed GlyT-1/GlyT-2 activity |  |
| CCc1ccc(C(SCC(N)C(=O)O)c2cccc(C(F)(F)F)c2)cc1CC (racemic) [S-(3,4-Diethyl-3'-trifluoromethyidiphenyl)methyl-D,L-cysteine] | mixed GlyT-1/GlyT-2 activity |  |
| CCc1ccc(C(SCC(N)C(=O)O)c2ccc([N+](=O)[O-])cc2)cc1CC (racemic) [S-(3,4-Diethyl-4'-nitrodiphenyl)methyl-D,L-cysteine] |  | selectivity for the inhibition of glycine transport via GlyT-2 versus GlyT-1 |
| CCc1ccc(C(SC(C)(C)C(N)C(=O)O)c2ccc(F)cc2)cc1CC (racemic) [S-(3,4-Diethyl-4-fluorodiphenyl)methyl-D,L-dimethylcysteine] | mixed GlyT-1/GlyT-2 activity |  |
| CC(C)(C)c1ccc(C(SCCC(N)C(=O)O)c2ccccc2)cc1 (racemic) [S-(4'-Butyidiphenyl)methyl-D,L-homocysteine] | mixed GlyT-1/GlyT-2 activity |  |
| Cc1ccc(C(SCC(N)C(=O)O)c2ccc(C)cc2)cc1 (racemic) [S-(4,4'-Dimethyldiphenyl)methyl-D,L-cysteine] |  | selectivity for the inhibition of glycine transport via GlyT-2 versus GlyT-1 |
| NC(CSC(c1ccc(F)cc1)c1ccccc1-c1ccccc1)C(=O)O (racemic) [S-(4-Fluoro-2'-phenyldiphenyl)methyl-D,L-cysteine] |  | selectivity for the inhibition of glycine transport via GlyT-2 versus GlyT-1 |
| Cc1ccc(C(SCC(N)C(=O)O)c2ccc(C)s2)s1 (racemic) [S-[α,α-Bis(5-methyl-2-thienyl)]methyl-D,L-cysteine] |  | selectivity for the inhibition of glycine transport via GlyT-2 versus GlyT-1 |
| NC(CSC(c1ccc2c(c1)CCCC2)c1ccc(F)cc1F)C(=O)O (racemic) [S-[α-(5,6,7,8-Tetrahydronaphth-2-yl)-α-(2,4-difluorophenyl)]methyl-D,L-cysteine] |  | selectivity for the inhibition of glycine transport via GlyT-2 versus GlyT-1 |
